Experimental data taken from PubChem BioAssay AID2060887 (Molecular Pharmacology Branch, DTP, NCI, 2025).

Test system: 782815-120-R-J1-PDC complex spheroid viability
Assay: Anticancer human tumor 782815-120-R-J1-PDC patient-derived colon adenocarcinoma cell line growth inhibition [RAS]
Details: for IC50: curve of first compound; for viability, T/C: stronger effect = lower value
Procedure, shortened: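 Multi-cell-type spheroids: tumor cells plus HUVEC endothelial cells and mesenchymal stem cells. RAS-pathway inhibitors were combined with targeted agents, each dosed in half-log steps down from clinical Cmax, or from 10 microM when Cmax was unknown.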
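Also: spheroids exposed to compounds for 7 days before reading.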
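For viability, T/C in this document: 100% = DMSO vehicle control viability.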

With `O=C(c1ccc(F)c(F)c1Nc1ccc(I)cc1F)N1CC(O)([C@@H]2CCCCN2)C1` + C=CC(=O)N1CCN(c2nc(OCC3CCCN3C)nc3c(F)c(-c4nc(N)cc(C)c4C(F)(F)F)c(Cl)cc23)C(C)C1 the IC50 (second compound 0.00316 µM) was 74.5 nM, the IC50 (second compound 0.01 µM) was 67.8 nM and the IC50 (second compound 0.0316 µM) was 67.5 nM. For the same molecule, the IC50 (second compound 0.1 µM) was 100 nM, the IC50 (second compound 0.316 µM) was 83.8 nM and the IC50 (second compound 1 µM) was 82.1 nM. It also gave a viability, T/C (second compound 0.00316 µM, first compound 0.00316 µM) of 91.2%, a viability, T/C (second compound 0.00316 µM, first compound 0.01 µM) of 87.7% and a viability, T/C (second compound 0.00316 µM, first compound 0.0316 µM) of 64.6%. It also gave a viability, T/C (second compound 0.00316 µM, first compound 0.1 µM) of 44.3%, a viability, T/C (second compound 0.00316 µM, first compound 0.316 µM) of 21.8% and a viability, T/C (second compound 0.00316 µM, first compound 1 µM) of 3.64%. It also gave a viability, T/C (second compound 0.01 µM, first compound 0.00316 µM) of 93.1%, a viability, T/C (second compound 0.01 µM, first compound 0.01 µM) of 86.5% and a viability, T/C (second compound 0.01 µM, first compound 0.0316 µM) of 64.6%. It also gave a viability, T/C (second compound 0.01 µM, first compound 0.1 µM) of 40.9%, a viability, T/C (second compound 0.01 µM, first compound 0.316 µM) of 21.7% and a viability, T/C (second compound 0.01 µM, first compound 1 µM) of 4.13%. For the same molecule, the viability, T/C (second compound 0.0316 µM, first compound 0.00316 µM) was 99.3%, the viability, T/C (second compound 0.0316 µM, first compound 0.01 µM) was 79.5% and the viability, T/C (second compound 0.0316 µM, first compound 0.0316 µM) was 64.2%. For the same molecule, the viability, T/C (second compound 0.0316 µM, first compound 0.1 µM) was 46.3%, the viability, T/C (second compound 0.0316 µM, first compound 0.316 µM) was 19% and the viability, T/C (second compound 0.0316 µM, first compound 1 µM) was 4.19%. For the same molecule, the viability, T/C (second compound 0.1 µM, first compound 0.00316 µM) was 84.1%, the viability, T/C (second compound 0.1 µM, first compound 0.01 µM) was 90.1% and the viability, T/C (second compound 0.1 µM, first compound 0.0316 µM) was 68.3%. The viability, T/C (second compound 0.1 µM, first compound 0.1 µM) was 52.4%, the viability, T/C (second compound 0.1 µM, first compound 0.316 µM) was 20.7% and the viability, T/C (second compound 0.1 µM, first compound 1 µM) was 4.3%. It also gave a viability, T/C (second compound 0.316 µM, first compound 0.00316 µM) of 90.5%, a viability, T/C (second compound 0.316 µM, first compound 0.01 µM) of 88.5% and a viability, T/C (second compound 0.316 µM, first compound 0.0316 µM) of 66.2%. For the same molecule, the viability, T/C (second compound 0.316 µM, first compound 0.1 µM) was 47.7%, the viability, T/C (second compound 0.316 µM, first compound 0.316 µM) was 22% and the viability, T/C (second compound 0.316 µM, first compound 1 µM) was 4.23%. The viability, T/C (second compound 1 µM, first compound 0.00316 µM) was 88.9%, the viability, T/C (second compound 1 µM, first compound 0.01 µM) was 93.5% and the viability, T/C (second compound 1 µM, first compound 0.0316 µM) was 66.1%. It also gave a viability, T/C (second compound 1 µM, first compound 0.1 µM) of 45.5%, a viability, T/C (second compound 1 µM, first compound 0.316 µM) of 23.1% and a viability, T/C (second compound 1 µM, first compound 1 µM) of 4.2%.
